According to patent US20260200919A1, “SUBSTITUTED AMINOPYRIDINE COMPOUNDS AND METHODS OF TREATING DISEASE USING SAME” (Atavistik Bio, Inc., priority 2023, published 2026):
pIC50: −log10 of the molar value.

Assays:
[1] = target: T1, human recombinant kinase full-length AKT1 E17K (Homo sapiens, UniProt P31749, E17K); test: AKT1 E17K kinase assay (TR-FRET, Lance); format: biochemical; conditions: 0.6 nM AKT1 E17K, 50 nM Ulight-CREBtide, either 50 μM ATP or 2 mM ATP (not specified which), 60 min at RT
T1 construct: Purified human recombinant kinase full-length AKT1 E17K was expressed in insect cells; made in house; host or cells: insect cells
T1 sequence (P31749 whole entry E17K): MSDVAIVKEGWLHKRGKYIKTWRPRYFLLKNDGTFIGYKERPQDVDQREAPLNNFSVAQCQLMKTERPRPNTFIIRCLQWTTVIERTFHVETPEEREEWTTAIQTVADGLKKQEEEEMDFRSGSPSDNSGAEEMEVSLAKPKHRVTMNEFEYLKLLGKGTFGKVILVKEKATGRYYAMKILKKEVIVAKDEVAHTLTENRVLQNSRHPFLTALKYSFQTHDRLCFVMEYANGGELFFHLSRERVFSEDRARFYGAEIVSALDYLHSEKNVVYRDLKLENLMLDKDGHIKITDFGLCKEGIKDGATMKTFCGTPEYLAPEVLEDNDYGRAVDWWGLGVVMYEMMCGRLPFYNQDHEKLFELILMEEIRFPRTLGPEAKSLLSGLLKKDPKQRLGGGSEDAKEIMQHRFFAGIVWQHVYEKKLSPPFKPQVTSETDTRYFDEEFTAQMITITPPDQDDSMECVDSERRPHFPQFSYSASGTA
Description: AKT1 E17K kinase assay: Inhibitory effects of compounds on AKT1 E17K were undertaken in a 10-pt dose response kinase activity assay measuring phospho-peptide product formation based on TR-FRET signal as described in the following paragraph.
(§1) Purified human recombinant kinase full-length AKT1 E17K was expressed in insect cells and activated in vitro by PDPK1. Ulight™-CREBtide (PerkinElmer, catalog number TRF0107) was used as the peptide substrate. The reaction buffer consisted of 50 mM HEPES pH 7.5, 10 mM MgCl2, 0.01% Triton X-100, 0.01% BSA, 2 mM DTT, 0.6 nM AKT1 E17K, 50 nM. Ulight™ CREBtide and either 50 μM ATP or 2 mM ATP. The compound solution was prepared as 10 mM DMSO stock. […] Final DMSO concentration in the assay was 1%. […] The reaction was stopped after 60 min of incubation at RT by the addition of 10 μL of Detection Mix (PerkinElmer, #CR97-100) consisting of Europium-anti-phospho-CREB (Ser133) (Perkin Elmer, catalog numberTRF0200). Incubation with the detection mix for a further 60 min allowed binding of antibody to the phospho-Ulight™ CREBtide. The fluorescence emissions at 620 nm and 665 nm after excitation at […] was measured using Envision reader. The ratio of the emissions at 665 nm and at 620 nm provided the measure for the amount of phosphorylated CREBtide product of AKT1 E17K kinase activity.

[2] = target: T2, human recombinant kinase full-length wildtype AKT1 (Homo sapiens, UniProt P31749); test: AKT1 kinase assay (wildtype, TR-FRET, Lance); format: biochemical; conditions: 0.6 nM wildtype AKT1, 50 nM Ulight-CREBtide, either 50 μM ATP or 2 mM ATP (not specified which), 60 min at RT
T2 construct: Purified human recombinant kinase full-length wildtype AKT1 was expressed in insect cells; made in house; host or cells: insect cells
T2 sequence (P31749 whole entry): as the sequence (P31749 whole entry E17K) above, with K17E counted along it
Description: AKT1 kinase assay: Inhibitory effects of compounds on wildtype AKT1 were undertaken in a 10-pt dose response kinase activity assay measuring phospho-peptide product formation based on TR-FRET signal as described in the following paragraph.
as §1, with “full-length wildtype” for “full-length”, “AKT1” for “AKT1 E17K”, “Ulight™—CREBtide” for “Ulight™-CREBtide”, “AKT1,” for “AKT1 E17K,”, “nM Ulight™-CREBtide” for “nM. Ulight™ CREBtide”

Row | pIC50 [1] | pIC50 [2] | SMILES
1 | < 6.30 | > 6.30 | Nc1ncccc1-c1nc2cc(-c3cccnc3)cnc2n1-c1ccc(CNC(=O)c2cccc(CC(=O)O)c2)cc1 [Compound 90, 2-(3-((4-(2-(2-aminopyridin-3-yl)-6-(pyridin-3-yl)-3H-imidazo[4,5-b]pyridin-3-yl)benzyl)carbamoyl)phenyl) acetic acid]
2 | < 6.30 | > 6.30 | COC(=O)CCc1ccc(C(=O)NCc2ccc(-n3c(-c4cccnc4N)nc4cc(-c5cccnc5)cnc43)cc2)cc1 [Compound 91, methyl 3-(4-((4-(2-(2-aminopyridin-3-yl)-6-(pyridin-3-yl)-3H-imidazo[4,5-b]pyridin-3-yl)benzyl)carbamoyl)phenyl) propanoate]
3 | 6.30 to 6.70 | > 6.30 | Nc1ncccc1-c1nc2cc(-c3cccnc3)cnc2n1-c1ccc(CNC(=O)c2ccc(CCC(=O)O)cc2)cc1 [Compound 92, 3-(4-((4-(2-(2-aminopyridin-3-yl)-6-(pyridin-3-yl)-3H-imidazo[4,5-b]pyridin-3-yl)benzyl)carbamoyl)phenyl) propanoic acid]
4 | < 6.30 | > 6.30 | COC(=O)CCc1cccc(C(=O)NCc2ccc(-n3c(-c4cccnc4N)nc4cc(-c5cccnc5)cnc43)cc2)c1 [Compound 93, methyl 3-(3-((4-(2-(2-aminopyridin-3-yl)-6-(pyridin-3-yl)-3H-imidazo[4,5-b]pyridin-3-yl)benzyl)carbamoyl)phenyl) propanoate]
5 | < 6.30 | > 6.30 | Nc1ncccc1-c1nc2cc(-c3cccnc3)cnc2n1-c1ccc(CNC(=O)c2cccc(CCC(=O)O)c2)cc1 [Compound 94, 3-(3-((4-(2-(2-aminopyridin-3-yl)-6-(pyridin-3-yl)-3H-imidazo[4,5-b]pyridin-3-yl)benzyl)carbamoyl)phenyl) propanoic acid]
6 | 6.30 to 6.70 | > 6.30 | Nc1ncccc1-c1nc2ccc(-c3cccnc3)nc2n1-c1ccc(CNC(=O)c2ccc(CC(=O)O)cc2)cc1 [Compound 95, 2-(4-((4-(2-(2-aminopyridin-3-yl)-5-(pyridin-3-yl)-3H-imidazo[4,5-b]pyridin-3-yl)benzyl)carbamoyl)phenyl) acetic acid]
7 | 6.30 to 6.70 | > 6.30 | Nc1ncccc1-c1nc2ccc(-c3cccnc3)nc2n1-c1ccc(CNC(=O)c2cccc(CC(=O)O)c2)cc1 [Compound 96, 2-(3-((4-(2-(2-aminopyridin-3-yl)-5-(pyridin-3-yl)-3H-imidazo[4,5-b]pyridin-3-yl)benzyl)carbamoyl)phenyl) acetic acid]

More lines, now with the values behind:

Row | SMILES | pIC50 [1] | pIC50 [2]
8 | Nc1ncccc1-c1nc2ccc(-c3ccccc3)nc2n1-c1ccc(C2CN(C(=O)c3ccc(C(=O)O)cc3F)C2)cc1 [Compound 76, 4-(3-(4-(2-(2-aminopyridin-3-yl)-5-phenyl-3H-imidazo[4,5-b]pyridin-3-yl)phenyl)azetidine-1-carbonyl)-3-fluorobenzoic acid] | > 7.30 | > 6.30
9 | Cc1c(C(=O)O)cccc1C(=O)N1CC(c2ccc(-n3c(-c4cccnc4N)nc4ccc(-c5ccccc5)nc43)cc2)C1 [Compound 77, 3-(3-(4-(2-(2-aminopyridin-3-yl)-5-phenyl-3H-imidazo[4,5-b]pyridin-3-yl)phenyl)azetidine-1-carbonyl)-2-methylbenzoic acid] | 6.70 to 7.30 | > 6.30
10 | Nc1ncccc1-c1nc2ccc(-c3ccccc3)nc2n1-c1ccc(C2CN(C(=O)c3cccc(C(=O)O)c3F)C2)cc1 [Compound 78, 3-(3-(4-(2-(2-aminopyridin-3-yl)-5-phenyl-3H-imidazo[4,5-b]pyridin-3-yl)phenyl)azetidine-1-carbonyl)-2-fluorobenzoic acid] | 6.70 to 7.30 | > 6.30
11 | Nc1ncccc1-c1nc2ccc(-c3ccccc3)nc2n1-c1ccc(C2CN(Cc3cccc(CC(=O)O)c3)C2)cc1 [Compound 79, 2-(3-((3-(4-(2-(2-aminopyridin-3-yl)-5-phenyl-3H-imidazo[4,5-b]pyridin-3-yl)phenyl)azetidin-1-yl)methyl)phenyl) acetic acid] | 6.30 to 6.70 | > 6.30
12 | CC(=O)Nc1ccc(-c2ccc3nc(-c4cccnc4N)n(-c4ccc(CNC(=O)c5cccc(CC(=O)O)c5)cc4)c3n2)cc1 [Compound 80, 2-(3-((4-(5-(4-acetamidophenyl)-2-(2-aminopyridin-3-yl)-3H-imidazo[4,5-b]pyridin-3-yl)benzyl)carbamoyl)phenyl) acetic acid] | 6.30 to 6.70 | > 6.30
13 | CC(=O)Nc1cccc(-c2ccc3nc(-c4cccnc4N)n(-c4ccc(CNC(=O)c5cccc(CC(=O)O)c5)cc4)c3n2)c1 [Compound 81, 2-(3-((4-(5-(3-acetamidophenyl)-2-(2-aminopyridin-3-yl)-3H-imidazo[4,5-b]pyridin-3-yl)benzyl)carbamoyl)phenyl) acetic acid] | 6.70 to 7.30 | > 6.30
14 | Nc1ncccc1-c1nc2cc(-c3ccccc3)cnc2n1-c1ccc(CNC(=O)c2cccc(CC(=O)O)c2)cc1 [Compound 82, 2-(3-((4-(2-(2-aminopyridin-3-yl)-6-phenyl-3H-imidazo[4,5-b]pyridin-3-yl)benzyl)carbamoyl)phenyl) acetic acid] | 6.30 to 6.70 | > 6.30
15 | CC(=O)Nc1cccc(-c2cnc3c(c2)nc(-c2cccnc2N)n3-c2ccc(CNC(=O)c3cccc(CC(=O)O)c3)cc2)c1 [Compound 83, 2-(3-((4-(6-(3-acetamidophenyl)-2-(2-aminopyridin-3-yl)-3H-imidazo[4,5-b]pyridin-3-yl)benzyl)carbamoyl)phenyl) acetic acid] | 6.30 to 6.70 | > 6.30
16 | CC(=O)Nc1ccc(-c2cnc3c(c2)nc(-c2cccnc2N)n3-c2ccc(CNC(=O)c3cccc(CC(=O)O)c3)cc2)cc1 [Compound 84, 2-(3-((4-(6-(4-acetamidophenyl)-2-(2-aminopyridin-3-yl)-3H-imidazo[4,5-b]pyridin-3-yl)benzyl)carbamoyl)phenyl) acetic acid] | 6.70 to 7.30 | > 6.30
17 | Nc1ncccc1-c1nc2cc(-c3cccc(NC(=O)c4ccccc4)c3)cnc2n1-c1ccc(CNC(=O)c2cccc(CC(=O)O)c2)cc1 [Compound 85, 2-(3-((4-(2-(2-aminopyridin-3-yl)-6-(3-benzamidophenyl)-3H-imidazo[4,5-b]pyridin-3-yl)benzyl)carbamoyl)phenyl) acetic acid] | 6.70 to 7.30 | > 6.30
18 | Nc1ncccc1-c1nc2cc(-c3ccc(NC(=O)c4ccccc4)cc3)cnc2n1-c1ccc(CNC(=O)c2cccc(CC(=O)O)c2)cc1 [Compound 86, 2-(3-((4-(2-(2-aminopyridin-3-yl)-6-(4-benzamidophenyl)-3H-imidazo[4,5-b]pyridin-3-yl)benzyl)carbamoyl)phenyl) acetic acid] | > 7.30 | > 6.30
19 | COC(=O)Cc1ccc(C(=O)NCc2ccc(-n3c(-c4cccnc4N)nc4cc(-c5cccnc5)cnc43)cc2)cc1 [Compound 87, methyl 2-(4-((4-(2-(2-aminopyridin-3-yl)-6-(pyridin-3-yl)-3H-imidazo[4,5-b]pyridin-3-yl)benzyl)carbamoyl)phenyl)acetate] | < 6.30 | > 6.30
20 | Nc1ncccc1-c1nc2cc(-c3cccnc3)cnc2n1-c1ccc(CNC(=O)c2ccc(CC(=O)O)cc2)cc1 [Compound 88, 2-(4-((4-(2-(2-aminopyridin-3-yl)-6-(pyridin-3-yl)-3H-imidazo[4,5-b]pyridin-3-yl)benzyl)carbamoyl)phenyl) acetic acid] | < 6.30 | > 6.30
21 | COC(=O)Cc1cccc(C(=O)NCc2ccc(-n3c(-c4cccnc4N)nc4cc(-c5cccnc5)cnc43)cc2)c1 [Compound 89, methyl 2-(3-((4-(2-(2-aminopyridin-3-yl)-6-(pyridin-3-yl)-3H-imidazo[4,5-b]pyridin-3-yl)benzyl)carbamoyl)phenyl)acetate] | < 6.30 | > 6.30
